Data: ChEMBL document CHEMBL1132665, “Casein kinase II inhibitors isolated from two Brazilian plants Hymenaea parvifolia and Wulffia baccata” (Bioorg Med Chem Lett, 1999)

Columns and labels:
[1] = target: T1, Casein kinase II (Homo sapiens) (UniProt P67870+P68400+P19784); experiment: Inhibition of CK-II-mediated 60S acidic ribosomal P protein activity at 10 uM; type: functional
[2] = target: T1, Casein kinase II (Homo sapiens); experiment: In vitro inhibitory activity against casein kinase II was determined; type: protein-complex assay

Row | Activity [1] | ID50 [2] [µM] | Structure (SMILES)
1 | Dose-dependent effect |  | C/C=C(/C)C(=O)O[C@@H]1CC(C)(C)CC2C3=CC[C@@H]4[C@]56CC[C@@](O)(OC5)C(C)(C)[C@@H]6CC[C@@]4(C)[C@]3(C)CC[C@]21C(=O)O (stereo partly specified)
2 | Dose-dependent effect | 9 | C[C@H]1OC(O[C@H]2C(=O)c3c(O)cc(O)cc3O[C@@H]2c2ccc(O)c(O)c2)[C@H](O)[C@H](O)[C@@H]1O (stereo partly specified)
3 | Dose-dependent effect | 7 | C[C@H]1OC(O[C@@H]2C(=O)c3c(O)cc(O)cc3O[C@H]2c2ccc(O)c(O)c2)[C@H](O)[C@H](O)[C@@H]1O (stereo partly specified)
4 | Dose-dependent effect |  | C[C@@H]1CC[C@]2(C(=O)O)CC[C@]3(C)C(=CC[C@@H]4[C@]56CC[C@@](O)(OC5)C(C)(C)[C@@H]6CC[C@]43C)C2[C@H]1C (stereo partly specified)
